Experimental data as given in ChEMBL document CHEMBL2380286, “Synthesis, characterization and anti-tumor activity of novel thymoquinone analogs against pancreatic cancer” (2013).
Calls of active or inactive are those of the source. No cut-off for these calls is given here.

Key:
[1] = system: BXPC-3; assay: Cytotoxicity against human BxPC3 cells at 10 uM after 72 hrs by MTT assay; assay type: functional, cell-based
[2] = system: MIA PaCa-2; assay: Chemo-sensitizing activity in human MIAPaCa2 cells assessed as potentiation of gemcitabine-induced cytotoxicity at 2.5 uM after 72 hrs by MTT assay; assay type: functional, cell-based
[3] = system: MIA PaCa-2; assay: Induction of apoptosis in human MIAPaCa2 cells at 10 uM after 72 hrs by Histone DNA ELISA; assay type: functional, cell-based
[4] = system: MIA PaCa-2; assay: Cytotoxicity against human MIAPaCa2 cells at 0.5 uM after 72 hrs by MTT assay; assay type: functional
[5] = system: MIA PaCa-2; assay: Cytotoxicity against human MIAPaCa2 cells at 5 to 25 uM after 72 hrs by MTT assay; assay type: functional, cell-based

| Compound | Activity [1] | Activity [2] | Activity [3] | Activity [4] | Activity [5] |
| --- | --- | --- | --- | --- | --- |
| CC1=C(N)C(=O)C(C(C)C)=CC1=O | Active |  |  |  |  |
| CC1=C(/N=C/c2ccc(F)c(F)c2F)C(=O)C(C(C)C)=CC1=O | Active | inactive | Active |  |  |
| Nc1ccn([C@@H]2O[C@H](CO)[C@@H](O)C2(F)F)c(=O)n1 [GEMCITABINE] |  |  |  | >50% |  |
| CC1=C(/N=C/c2ccc(O)c(O)c2O)C(=O)C(C(C)C)=CC1=O | Active | Active | Active |  | Active |
